Test system: Haemonchus contortus L3 resistant strain
Assay: In vitro motility assay, H. contortus L3 resistant strain
Type: cell-based
Conditions: 96 hours; for H. contortus L3 resistant MED: minimum efficacious dose, visual motility assessment; for % Motility: vs untreated control, LemnaTec, moxidectin 0.3 μM, pyrantel 10 μM, Compound A 100 μM, alone or combined

| Structure (SMILES) | H. contortus L3 resistant MED [µM] | % Motility [%] |
| --- | --- | --- |
| CS(=O)(=O)CC(=O)N1CC2(C1)OCc1cc(C3=NO[C@@](c4cc(Cl)c(F)c(Cl)c4)(C(F)(F)F)C3)ccc12 [Compound A, (S)-1-(5′-(5-(3,5-dichloro-4-fluorophenyl)-5-(trifluoromethyl)-4,5-dihydroisoxazol-3-yl)-3′H-spiro[azetidine-3,1′-isobenzofuran]-1-yl)-2-(methylsulfonyl)ethanone] | >100 | 69.0 |
| CN1CCCN=C1/C=C/c1cccs1 [Pyrantel, pyrantel pamoate] | 33 | 80.0 |
| CO/N=C1\C[C@]2(C[C@@H]3C[C@@H](C/C=C(\C)C[C@@H](C)/C=C/C=C4\CO[C@@H]5[C@H](O)C(C)=C[C@@H](C(=O)O3)[C@]45O)O2)O[C@H](/C(C)=C/C(C)C)[C@H]1C [Moxidectin, moxidectin] | 1 | 64.3 |

Reference: patent US9226928B2, “Spirocyclic isoxazoline parasiticidal combinations” (Zoetis Services LLC, priority 2012, dated 2016)
